Consider 13 molecules from ChEMBL document CHEMBL1201862, “PubChem BioAssay data set” (2004).

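48-hour exposure; five concentrations; linearly interpolated endpoints. GI50: concentration for 50% inhibition of growth.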 Active and inactive are the calls of the source. Rule as the data show it: active = GI50 up to about 1.1 µM and inactive = higher. Some results are limits rather than exact numbers.

Experiment in all cases: growth of human tumour cells (NCI), 48 h
Assay [1] deals with U-251.
Assay [2] has as its system MCF7.
The subject of assay [3] is IGROV-1.
Assay [4] has as its system SNB-19.
The test system of assay [5] is SF-268.
Assay [6] concerns ACHN.
The test system of assay [7] is TK-10.
Assay [8] concerns HCT-15.
Assay [9] relates to RXF 393.
The test system of assay [10] is OVCAR-8.
The subject of assay [11] is SK-MEL-28.
Assay [12] concerns K562.
Assay [13] has as its system T47D.
Assay [14] relates to HT-29.
The subject of assay [15] is HL-60.
The test system of assay [16] is RPMI-8226.
Assay [17] concerns HCC 2998.
Assay [18] concerns NCI/ADR-RES.

Take `O=C1Cc2c([nH]c3cc(Br)ccc23)-c2ccccc2N1`: the GI50 in [1] is 14.4 µM (inactive); in assay [2], 34.6 µM (inactive); in [3] it was 16.4 µM (inactive); in assay [4], 21.9 µM (inactive); in assay [5], 25.2 µM (inactive); in assay [6], 17.5 µM (inactive). Besides, the GI50 in [7] was 29.3 µM (inactive); in assay [8], 4.21 µM; in assay [9], 3.24 µM (inactive); in assay [10], 18.4 µM (inactive); in assay [11], > 100 µM (inactive); in assay [12], 4.09 µM (inactive). Moreover, the GI50 in assay [13] was 10.9 µM (inactive); in assay [14], 13.9 µM (inactive); in assay [15], 58.2 µM (inactive).

For the molecule `COc1cccc(-c2nc(-c3cnccn3)n(Cc3ccccc3)n2)c1`, the GI50 in assay [1] was > 100 µM (inactive); in assay [2], > 100 µM (inactive); in assay [3], 88.7 µM (inactive); in [4], 90.4 µM (inactive); in assay [16], > 100 µM (inactive); in assay [5], > 100 µM (inactive). Also, the GI50 in assay [7] was > 100 µM (inactive); in assay [8] it was more than 100 µM; in [17], > 100 µM (inactive); in [9], 25.4 µM (inactive); in assay [10], > 100 µM (inactive); in assay [11] it was 86.1 µM (inactive). Further, the GI50 in assay [12], in assay [13], in assay [14] and in assay [15] was > 100 µM (inactive) throughout.

With `C=CCCC1(O)C(O)C(CO)O[C@H](O[C@@]2(CO)OC(CO)C(O)C2O)C1O` (stereo partly specified), the GI50 in [1], in assay [2], in assay [3], in assay [4], in assay [16] and in assay [5] was > 100 µM (inactive) throughout. Moreover, the GI50 was > 100 µM (inactive) in [6]; > 100 µM (inactive) in [7]; > 100 µM (inactive) in assay [18]; more than 100 µM in assay [8]; > 100 µM (inactive) in assay [10]; > 100 µM (inactive) in assay [11]. For the same molecule, the GI50 in assay [12], in [14] and in assay [15] was > 100 µM (inactive) each time.

Consider `Cc1ccc2c(O)cc(-c3sccc3C)nc2n1`, for which the GI50 in assay [1] was 0.832 µM (active); in assay [2] it was 0.315 µM (active); in [3], 0.625 µM (active); in assay [4], 0.78 µM (active); in assay [16] it was 0.444 µM (active); in assay [5], 1.86 µM (inactive). Moreover, the GI50 in assay [6] is 1.1 µM (active); in assay [7], > 24.2 µM (inactive); in assay [18] it was 0.326 µM (active); in [8] it was 0.406 µM; in assay [17], 1.02 µM (active); in assay [9] it was 1.31 µM (inactive). For the same molecule, the GI50 in assay [10] is 1.99 µM (inactive); in assay [12], 0.427 µM (active); in assay [14] it was 1.33 µM (inactive); in assay [15], 0.174 µM (active).

For the molecule `COc1cc(OC2OC(CO)C(O)C(O)C2O)c2c(O)c3c(=O)cc(C)oc3cc2c1` (stereo unspecified), the GI50 in assay [1] is > 100 µM (inactive); in assay [2] it was > 100 µM (inactive); in assay [3] it was > 100 µM (inactive); in assay [4] it was > 100 µM (inactive); in assay [16], > 100 µM (inactive); in assay [5], 64.3 µM (inactive). Moreover, the GI50 in assay [6] is > 100 µM (inactive); in assay [7], > 100 µM (inactive); in [8], more than 100 µM; in assay [17], > 100 µM (inactive); in assay [10], > 100 µM (inactive); in assay [11] it was > 100 µM (inactive). Also, the GI50 in [12], in [13], in [14] and in [15] was > 100 µM (inactive) in each case.

On to `CN1C(=O)[C@@H]2[C@@H]3c4ccccc4N(S(=O)(=O)C(F)(F)F)[C@@H]3c3[nH]c4ccccc4c3[C@@H]2C1=O`, for which the GI50 is 31.3 µM (inactive) in assay [1]; 11.6 µM (inactive) in [2]; 0.175 µM (active) in assay [3]; > 100 µM (inactive) in assay [4]; 8.39 µM (inactive) in assay [16]; > 100 µM (inactive) in assay [5]. Further, the GI50 is 25.1 µM (inactive) in [6]; 47.8 µM (inactive) in assay [7]; 26.3 µM (inactive) in assay [18]; 16.9 µM in assay [8]; > 100 µM (inactive) in [17]; 10.3 µM (inactive) in [9]. Also, the GI50 in assay [10] is 83 µM (inactive); in assay [11] it was > 100 µM (inactive); in assay [12], 7.28 µM (inactive); in [14], 7.67 µM (inactive).

In the case of `CCOC(=O)c1sc2nc(SC)nc3c2c1NC(=O)CN3c1cccc(F)c1`, the GI50 in assay [1] was 14.4 µM (inactive); in assay [2], 29 µM (inactive); in assay [3], 61.8 µM (inactive); in [4], 20.3 µM (inactive); in [16] it was 9.12 µM (inactive); in assay [5], 12.4 µM (inactive). The GI50 is 13 µM (inactive) in [6]; 28.4 µM (inactive) in [7]; 16.7 µM (inactive) in [9]; 15.5 µM (inactive) in assay [10]; 0.138 µM (active) in [11]; 22.4 µM (inactive) in assay [12]. Moreover, the GI50 in assay [14] was 32.6 µM (inactive); in assay [15], 0.491 µM (active).

Take `OCCN1c2ccccc2Sc2ccccc21`: the GI50 in assay [1], in [2], in assay [4], in [16], in [5] and in [6] was > 10 µM (inactive) each time. The GI50 in assay [7] is > 10 µM (inactive); in assay [18] it was > 10 µM (inactive); in [8], more than 10 µM; in assay [17], > 10 µM (inactive); in [10], > 10 µM (inactive); in assay [11], > 10 µM (inactive). For the same molecule, the GI50 in [12], in [14] and in assay [15] was > 10 µM (inactive) throughout.

Turning to `N#Cc1c(-c2ccc([N+](=O)[O-])cc2)c(C#N)c(=O)n(NS(=O)(=O)c2ccccc2)c1O`, the GI50 in assay [1] was > 100 µM (inactive); in assay [2], > 100 µM (inactive); in assay [3] it was > 100 µM (inactive); in [4], 18.5 µM (inactive); in assay [16] it was > 100 µM (inactive); in assay [6], > 100 µM (inactive). In addition, the GI50 in assay [7] is > 100 µM (inactive); in assay [18] it was > 100 µM (inactive); in assay [8], more than 100 µM; in assay [17], > 100 µM (inactive); in assay [9], > 100 µM (inactive); in assay [10], > 100 µM (inactive). Further, the GI50 in assay [11], in assay [12], in assay [14] and in [15] was > 100 µM (inactive) in each case.

In the case of `CCOC(=O)CNC(=O)C(CSCc1ccc(Br)cc1)NC(=O)CCC(N)C(=O)OCC` (stereo unspecified), the GI50 in [1], in assay [2], in assay [3], in assay [4], in assay [16] and in assay [5] was > 50 µM (inactive) in each case. Moreover, the GI50 in assay [6] is > 50 µM (inactive); in assay [18] it was > 50 µM (inactive); in assay [8] it was more than 50 µM; in [17], > 50 µM (inactive); in assay [9], > 50 µM (inactive); in [10], > 50 µM (inactive). For the same molecule, the GI50 in [11], in assay [12] and in assay [14] was > 50 µM (inactive) in each case.

For `O=c1c2ccccc2ncn1COCc1ccccc1`, the GI50 in [1], in assay [2], in [3], in assay [4], in assay [6] and in assay [7] was > 100 µM (inactive) throughout. The GI50 in assay [18] was > 100 µM (inactive); in [8] it was more than 100 µM; in assay [17] it was > 100 µM (inactive); in assay [9], > 100 µM (inactive); in assay [10], > 100 µM (inactive); in assay [11], > 100 µM (inactive). The GI50 in [12], in [14] and in [15] was > 100 µM (inactive) each time.

Turning to `O=c1cc(N2CCCC2)[nH]c(=O)n1-c1ccccc1`, the GI50 in [1] was > 100 µM (inactive); in assay [2] it was > 100 µM (inactive); in [3], > 100 µM (inactive); in assay [4] it was > 100 µM (inactive); in [16], > 100 µM (inactive); in assay [5], > 10 µM (inactive). In addition, the GI50 in assay [6] is > 100 µM (inactive); in assay [7], > 100 µM (inactive); in assay [18] it was > 100 µM (inactive); in [8], more than 100 µM; in assay [17], 37 µM (inactive); in assay [10], > 100 µM (inactive). The GI50 in assay [11], in assay [12], in [14] and in assay [15] was > 100 µM (inactive) in each case.

As to `O=C1C(N2CCNCC2)=C(Cl)C(=O)c2ncccc21`, the GI50 in assay [1] was > 10 µM (inactive); in assay [2], 3.02 µM (inactive); in [3], > 10 µM (inactive); in assay [4] it was > 10 µM (inactive); in assay [16] it was 3.37 µM (inactive); in assay [5], > 10 µM (inactive). In addition, the GI50 in [6] is > 10 µM (inactive); in [7], > 10 µM (inactive); in [8], more than 10 µM; in assay [17], > 10 µM (inactive); in assay [9], > 10 µM (inactive); in assay [10] it was 6.19 µM (inactive). Besides, the GI50 in [11], in assay [12], in assay [13] and in assay [14] was > 10 µM (inactive) throughout.
